US20110001042A1, “ASSESSING TREATMENT COMPLIANCE” (priority 2007, published 2011)
Values joined by “and” are separate entries in the source; they are usually repeats but may differ in a detail not shown here. Equal values may be shown once.

Legend:
[1] = sensitivity and specificity of urine fluticasone 17β carboxylic acid after witnessed fluticasone propionate administration in asthma patients; format: in vivo, human; settings: Fluticasone Administered Under Observation, 16-24 hours before sample
Method: In order to evaluate the sensitivity and specificity of fluticasone 17β carboxylic acid, nineteen patients with asthma were recruited. Nine of these subjects were on treatment with fluticasone propionate. As a gold standard of compliance, treatment was documented by an RN study nurse who witnessed the patients' administration of fluticasone propionate 16-24 hours prior to submission of a urine sample for the analysis of fluticasone 17 β carboxylic acid. Urine samples from ten subjects with asthma but not receiving fluticasone propionate were used as controls.

[2] = fluticasone 17β carboxylic acid measured in urine with and without preservatives; format: physicochemical; settings: individual specimens, mean, bias
Method: Fluticasone 17β carboxylic acid was measured in urine samples lacking preservatives or urine samples containing one of the following preservatives: boric acid, glacial acetic acid, HCL, toluene, or sodium bicarbonate (Table 5).
In summary, non-preserved urine can be used effectively. Samples acquired with boric acid preservative indicated an individual bias of −0.6 to 5.0% and a mean bias of 1.4% from non-preserved urine specimen. Samples acquired in glacial acetic acid preservative indicated an individual bias of −18.9 to 17.1% and a mean bias of −1.2% from non-preserved urine specimen. Samples acquired in HCL preservative indicated an individual bias of −14.5 to 9.1% and a mean bias of −5.8% from non-preserved urine specimen. Samples acquired in sodium bicarbonate preservative indicated an individual bias of −94.7 to −92.5% and a mean bias of −93.8% from non-preserved urine specimen. Samples acquired in toluene preservative indicated an individual bias of −10.6 to 9.8% and a mean bias of 0.3% from non-preserved urine specimen. Thus, urine containing boric acid, glacial acetic acid, HCL, or toluene are acceptable. Urine containing sodium bicarbonate preservative is not as acceptable.

[3] = stability of fluticasone 17β carboxylic acid in pooled urine stored ambient, refrigerated or freeze/thaw; format: physicochemical; settings: for % Diff. 3: Ambient, Day 3; for % Diff 7: Day 7
Method: Fluticasone 17β carboxylic acid was measured in pooled urine samples lacking preservatives that were stored at ambient temperature, were refrigerated, or were frozen and subjected to freeze/thaw cycles (Table 6).
Fluticasone 17β carboxylic acid was measured in pooled urine samples containing boric acid as a preservative that were stored at ambient temperature, were refrigerated, or were frozen and subjected to freeze/thaw cycles (Table 7).
Fluticasone 17β carboxylic acid was measured in pooled urine samples containing glacial acetic acid as a preservative that were stored at ambient temperature, were refrigerated, or were frozen and subjected to freeze/thaw cycles (Table 8).
Fluticasone 17β carboxylic acid was measured in pooled urine samples containing hydrochloric acid as a preservative that were stored at ambient temperature, were refrigerated, or were frozen and subjected to freeze/thaw cycles (Table 9).
Fluticasone 17β carboxylic acid was measured in pooled urine samples containing toluene as a preservative that were stored at ambient temperature, were refrigerated, or were frozen and subjected to freeze/thaw cycles (Table 10).

[4] = fluticasone-17β carboxylic acid in urine of patients before, during and after FP therapy by LC-MS/MS; format: in vivo, human
Method: Fluticasone-17β carboxylic acid was extracted from urine using an acetonitrile precipitation followed by methylene chloride liquid extraction of the supernatant. Sixty μL of the reconstituted sample extract was analyzed by LC-MS/MS (ABI 4000). The linearity, precision, recovery and limit of quantitation (LOQ) were determined. Measurement of fluticasone-17β carboxylic acid in urine collected daily from patients before (days 1-2), during (days 3-6; total dose Flovent 110 2 puffs daily), and following cessation of FP therapy (days 7-14) was conducted (n=4). The linear range of fluticasone-17β carboxylic acid measured by LC-MS/MS was 10-9510 pg/mL. The LOQ with a CV<20% was 10 pg/mL, and recovery ranged from 85.8-111.9% with a mean of 97.9%. Within-run precision testing indicated a maximum CV of 9.3% at 10.3 pg/mL. Between-run precision CVs for urine pools spiked with 3 concentrations of fluticasone-17 β carboxylic acid were 10.6% at 11.1 pg/mL, 11.2% at 500.9 pg/mL, and 8.7% at 5116 pg/mL. Detection of fluticasone-17β carboxylic acid in urine from patients prior to FP therapy was <10 pg/mL (days 1 & 2), ranged from 157-1830 pg/mL when receiving therapy (days 3-6) and was undetectable 5 days after stopping therapy (days 11-14). An eight-point calibration curve (0, 10, 25, 100, 200, 1000, 2000, and 10000 pg/mL) and three controls (10, 500 and 5000 pg/mL) were prepared in charcoal stripped-urine and included with each assay run. Aliquots of urine were centrifuged for 5 minutes at 1000g to remove particulate matter. A 1.0 mL fraction of each calibrator, control, and urine sample was transferred into an appropriately labeled 12×75 mm glass tube. Internal standard (100 μL of 40 ng/mL fluorometholone working solution per sample) was added to each calibrator, control, and urine sample followed by gentle vortexing and incubation for 5 minutes at ambient temperature. Acetonitrile with 0.1% HCl (1.5 mL/sample) was then added, and tubes were vortexed and centrifuged at 1500g for 10 minutes. […]

SMILES: CCC(=O)O[C@]1(C(=O)O)[C@H](C)C[C@H]2[C@@H]3C[C@H](F)C4=CC(=O)C=C[C@]4(C)[C@@]3(F)[C@@H](O)C[C@@]21C [Fluticasone 17β carboxylic acid]
- Negative Urine (number of subjects) [1]: 0
- Positive Urine (number of subjects) [1]: 9
- % Difference between No Pres & HCL ([2]; urine with HCL): −14.5 to 9.1% and −5.8% and 9.1% and −12.1% and −14.5%
- % Difference between No Pres & BA ([2]; urine with boric acid): −0.6 to 5.0% and 1.4% and 5.0% and −0.6% and −0.3%
- % Difference between No Pres & GAA ([2]; urine with glacial acetic acid): −18.9 to 17.1% and −1.2% and 17.1% and −1.7% and −18.9%
- % Difference between No Pres & Na2CO3 ([2]; urine with sodium bicarbonate): −94.7 to −92.5% and −93.8% and −94.2% and −94.7% and −92.5%
- % Difference between No Pres & Toluene ([2]; urine with toluene): 0.3% and −10.6 to 9.8% and −10.6% and 9.8% and 1.6%
- time stable ([3]; boric acid-preserved urine, ambient temperature): 7 days
- freeze-thaw cycles stable ([3]; boric acid-preserved urine, frozen): up to 1 freeze-thaw cycle
- time stable ([3]; boric acid-preserved urine, refrigerated): 3 days
- time stable ([3]; glacial acetic acid-preserved urine, ambient temperature): 7 days
- freeze-thaw cycles stable ([3]; glacial acetic acid-preserved urine, frozen): up to 2 freeze-thaw cycles
- time stable ([3]; hydrochloric acid-preserved urine, ambient temperature): 7 days
- freeze-thaw cycles stable ([3]; hydrochloric acid-preserved urine, frozen): up to 1 freeze-thaw cycle
- time stable ([3]; hydrochloric acid-preserved urine, refrigerated): 3 days
- time stable ([3]; non-preserved urine, ambient temperature): 3 days
- freeze-thaw cycles stable ([3]; non-preserved urine, frozen): up to 3 freeze-thaw cycles
- time stable ([3]; non-preserved urine, refrigerated): 7 days
- freeze-thaw cycles stable ([3]; toluene-preserved urine, immediately frozen): up to 3 freeze-thaw cycles
- % Diff. 3 ([3]; urine Boric Acid): 1.2% and −1.3% and −7.9%
- % Diff. 3 ([3]; urine Boric Acid, mean): −2.7%
- % Diff. 1 ([3]; urine Boric Acid, Freeze/Thaw, F/T 1): −9.3% and −5.4% and −10.1%
- % Diff. 1 ([3]; urine Boric Acid, Freeze/Thaw, F/T 1, mean): −8.3%
- % Diff 7 ([3]; urine Boric Acid, Refrigerated): −14.5% and −10.1% and −16.3%
- % Diff 7 ([3]; urine Boric Acid, Refrigerated, mean): −13.7%
- % Diff. 1 ([3]; urine HCL, Refrigerated, Day 1): −4.6% and −2.6% and −9.5%
- % Diff. 1 ([3]; urine HCL, Refrigerated, Day 1, mean): −5.6%
- % Diff 7 ([3]; urine HCL, Refrigerated): −17.1% and −8.5%
- % Diff 7 ([3]; urine HCL, Refrigerated, mean): −11.4%
- % Diff. 1 ([3]; urine Toluene, Refrigerated, Day 1): −19.5% and −12.4% and −11.4%
- % Diff. 1 ([3]; urine Toluene, Refrigerated, Day 1, mean): −14.4%
- % Diff. 1 ([3]; urine no pres, Freeze/Thaw, F/T 1): 0.0% and −6.6% and −6.1%
- % Diff. 1 ([3]; urine no pres, Freeze/Thaw, F/T 1, mean): −4.2%
- % Diff. 1 ([3]; urine no pres, Refrigerated, Day 1): −7.5% and −4.4% and −11.5%
- % Diff. 1 ([3]; urine no pres, Refrigerated, Day 1, mean): −7.8%
- fluticasone-17β carboxylic acid in urine ([4]; 5 days after stopping therapy (days 11-14)): undetectable
- fluticasone-17β carboxylic acid in urine ([4]; patients prior to FP therapy (days 1 & 2)): < 10 pg/mL
- fluticasone-17β carboxylic acid in urine ([4]; patients receiving therapy (days 3-6; Flovent 110 2 puffs daily)): 157 to 1830 pg/mL
